System: unselective cation channels (UCC)
Assay: Thapsigargin (0.1 μM) stimulated Ca^2+ entry through unselective cation channels in fura-2-charged RBL-hm 1 cells
Assay type: cell-based, rat
Settings: RBL-hm 1 cells, Thapsigargin (0.1 μM) stimulation, 10 μM test substance (Table 21)
From the text: As a measurement of the cell activation or as a measurement of the inhibition thereof by UCC blockers, the kinetics of the cytoplasmic calcium ion concentration in fura-2-charged cells is quantified fluorometrically using the method described by GRYNKIEWICZ et al. (1985).
Consequently the Ca^2+ -stores are rapidly depleted. As described by J. PUTNEY (Calcium, 11, 611-624, 1990) the depletion of these stores constitutes the physiological stimulation for opening up unselective cation channels in the cell membrane. The result of this is a massive influx of Na^+ and Ca^2+ into the cell. Because of these properties, Thapsigargin is suitable as an indirect stimulator for agonist- and IP3-independent opening up of the unselective cation channels.
The functional endothelin antagonism of the substances according to the invention is mediated through a blockade of the unselective cation channels. Consequently, detection of a functional Thapsigargin-antagonism on RBL-hm1 cells is also a suitable screening method for functional endothelin antagonists.
For screening purposes, fura-2-charged adhesive RBL-hm 1 cells are stimulated with 0.1 μM Thapsigargin in a Ca^2+ -free incubation medium. After 4 minutes, extracellular Ca^2+ is restored to a concentration of 1.5 mM and, using the fura-2-fluorescence, the excessive increase in the cytoplasmic Ca^2+ -concentration caused by a massive transmembranal Ca^2+ -entry through unselective cation channels is recorded.
This entry is to be inhibited solely by unselective cation channel blockers in a dosage-dependent manner. Neither conventional calcium antagonists nor specific blockers of agonists which stimulate the IP3 -turnover are able to inhibit the transmembranal Ca^2+ -entry triggered indirectly by Thapsigargin. The compounds of the present invention are distinguished by their inhibition of UCC.
The fluorometric calcium measurement in the cytoplasm of individual adhering RBL-hm1 cells is carried out analogously to the method described by KUDO and OGURA (1986) for neuronal cells. An AXIOVERT 35 fluorescence microscope made by ZEISS is used in conjunction with an imaging system made by HAMAMATSU, consisting of the ICMS-image processing system, residual light camera with control unit and image intensifier DVS 3000.
The kinetics of the cytoplasmic Ca^2+ -concentration is recorded continuously as a concentration/time curve after the cell activation stimulated by Thapsigargin (0.1 μM). The curves of two activated cell cultures are compared in the presence and absence of 10 μM test substance. The area under these curves (area under the curve=AUC) is integrated and recorded as a measurement of cell activation. The inhibitory potency of the UCC-blockers tested is determined using the following equation: [formula] %H=the percentage inhibition of the calcium entry through unselective cation channels which is stimulated and inhibited by 10 μM of test substance.
AUCinh =area under the curve recorded in the presence of the stimulant plus 10 μM inhibitory test substance.
AUCcontrol =area under the curve which is recorded only after the addition of the stimulant.
The percentage inhibition of UCC after Thapsigargin stimulation (0.1 μM Thapsigargin) in RBL-hm 1 cells is given. The uniform concentration of the test substances is 10^-5 mol).

Row | SMILES | % Inhibition [%]
1 | CCOc1ccccc1CCNC(=O)C(=C1NCCc2cc(OC)c(OC)cc21)c1ccccc1 (single isomer, unassigned) [K] | 76.31
2 | COc1cc2c(cc1OC)C(=C(C(=O)NCCc1c(OC)cccc1OC)c1ccccc1)NCC2 (single isomer, unassigned) [L] | 53.14
3 | COc1cc2c(cc1OC)C(C(C(=O)N(CCc1ccc(OC)c(OC)c1OC)CCc1ccc(OC)c(OC)c1OC)c1ccccc1)=NCC2 (centres unmarked) [38a (oxalate)] | 52.64
4 | COc1cc2c(cc1OC)C(C(C(=O)N1CCCC1)c1ccccc1)=NCC2 (centres unmarked) [41 (Structure I)] | 57.22
5 | COc1cc2c(cc1OC)C(C(C(=O)NCCc1ccc(OC)c(OC)c1OC)c1ccccc1)=NCC2 (centres unmarked) [B] | 72.35
6 | COc1cc2c(cc1OC)C(C(C(=O)NCC(c1ccccc1)c1ccccc1)c1ccccc1)=NCC2 (centres unmarked) [C] | 63.45
7 | COc1cc2c(cc1OC)C(C(C(=O)NCCc1cccc(C(F)(F)F)c1)c1ccccc1)=NCC2 (centres unmarked) [E] | 81.89
8 | COc1cc2c(cc1OC)C(C(C(=O)NCc1c(F)cccc1OC)c1ccccc1)=NCC2 (centres unmarked) [F] | 48.01
9 | COc1cc2c(cc1OC)C(=C(C(=O)NCCc1cccc(OC)c1OC)c1ccccc1)NCC2 [G] | 57.52
10 | COc1cc2c(cc1OC)C(=C(C(=O)NC(C)COc1ccccc1)c1ccccc1)NCC2 (centres unmarked) [H] | 57.06
11 | COc1cc2c(cc1OC)C(C(C(=O)NCCc1ccsc1)c1ccccc1)=NCC2 (centres unmarked) [O] | 63.32

Same assay, conditions: Table 13; 10 μM test substance

Row | SMILES | % Inhib. [%]
12 | NS(=O)(=O)c1ccc(CCNC(=O)C(=C2NCCc3ccsc32)c2ccccc2)cc1 | 50.64
13 | COc1ccc(CCNC(=O)C(C2=NCCc3ccsc32)c2ccccc2)cc1 (centres unmarked) | 67.73
14 | COc1ccc(CCNC(=O)C(=C2NCCc3ccsc32)c2ccccc2)cc1 | 65.50
15 | CCOc1ccccc1CCNC(=O)C(C1=NCCc2ccsc21)c1ccccc1 (centres unmarked) | 24.03
16 | O=C(NCCc1cccc(C(F)(F)F)c1)C(C1=NCCc2ccsc21)c1ccccc1 (centres unmarked) | 43.49
17 | O=C(NCCc1ccc(Cl)cc1)C(C1=NCCc2ccsc21)c1ccccc1 (centres unmarked) | 15.26
18 | O=C(NCCc1ccc(Cl)cc1)C(=C1NCCc2ccsc21)c1ccccc1 | 26.54
19 | O=C(NCCc1ccsc1)C(C1=NCCc2ccsc21)c1ccccc1 (centres unmarked) | 0.0
20 | O=C(NCCc1ccsc1)C(=C1NCCc2ccsc21)c1ccccc1 | 67.75

Same assay, conditions: Table 14; 10 μM test substance

Row | SMILES | % Inhib. [%]
21 | COc1cc2c(cc1OC)C(C(C(=O)NCCc1ccc(S(N)(=O)=O)cc1)c1ccccc1)=NCC2 (centres unmarked) | 79.17
22 | COc1cc2c(cc1OC)C(C(C(=O)NCCCc1ccccc1)c1ccccc1)=NCC2 (centres unmarked) | 73.55
23 | COc1cc2c(cc1OC)C(C(C(=O)NCCC1CCCN1C)c1ccccc1)=NCC2 (centres unmarked) | 60.82
24 | COc1cc2c(cc1OC)C(C(C(=O)NC(C)CCc1ccccc1)c1ccccc1)=NCC2 (centres unmarked) | 82.76
25 | COc1ccc(CNC(=O)C(C2=NCCc3cc(OC)c(OC)cc32)c2ccccc2)cc1OC (centres unmarked) | 50.90
26 | COc1ccc(CNC(=O)C(C2=NCCc3cc(OC)c(OC)cc32)c2ccccc2)c(OC)c1 (centres unmarked) | 56.20
27 | COc1cc2c(cc1OC)C(C(C(=O)N(CCCc1ccccc1)CCCc1ccccc1)c1ccccc1)=NCC2 (centres unmarked) | 22.39
28 | COc1cc2c(cc1OC)C(C(C(=O)NCCc1ccc(C)cc1)c1ccccc1)=NCC2 (centres unmarked) | 79.60
29 | COc1cc2c(cc1OC)C(C(C(=O)NCCc1ccc(Cl)c(OCc3ccccc3)c1)c1ccccc1)=NCC2 (centres unmarked) | 36.71
30 | COc1cc2c(cc1OC)C(C(C(=O)NCC1CCCCC1)c1ccccc1)=NCC2 (centres unmarked) | 30.87

Same assay, conditions: Table 15; 10 μM test substance

Row | SMILES | % Inhib. [%]
31 | COc1cc2c(cc1OC)C(C(C(=O)NCCCc1ccc(C(C)(C)C)cc1)C1CCCCC1)=NCC2 (centres unmarked) | 84.43

Same assay, conditions: Table 16; %inhibition, 10 μM test substance

Row | SMILES | % [%]
32 | COc1ccc2c(c1)CCN=C2C(C(=O)NCCc1cccc(C(F)(F)F)c1)c1ccccc1 (centres unmarked) | 30.41
33 | O=C(NCCc1cccc(C(F)(F)F)c1)C(C1=NCCc2cc(OCc3ccccc3)ccc21)c1ccccc1 (centres unmarked) | 14.65
34 | Cc1cc2c(cc1OCc1ccccc1)CCN=C2C(C(=O)NCCc1cccc(C(F)(F)F)c1)c1ccccc1 (centres unmarked) | 49.03
35 | COc1cc2c(cc1OCc1ccccc1)CCN=C2C(C(=O)NCCc1cccc(C(F)(F)F)c1)c1ccccc1 (centres unmarked) | 31.8
36 | COc1cc2c(cc1OCc1ccccc1)C(C(C(=O)NCCc1cccc(C(F)(F)F)c1)c1ccccc1)=NCC2 (centres unmarked) | 22.9
37 | COc1cc2c(cc1C)C(C(C(=O)N(Cc1ccccc1)Cc1ccccc1)c1ccccc1)=NCC2 (centres unmarked) | 58.3

Same assay, conditions: Table 17; 10 μM test substance

Row | SMILES | percent inhibition of Ca2+ entry [%]
38 | COc1cc(N=[N+]=[N-])c(I)cc1CCNC(=O)C(C1=NCCc2cc(OC)c(OC)cc21)c1ccccc1 (centres unmarked) | 36.95
39 | COc1ccccc1CCNC(=O)C(C1=NCCc2cc(OC)c(OC)cc21)c1ccccc1 (centres unmarked) | 69.7
40 | COc1ccc(CCN(CC(C)C)C(=O)C(C2=NCCc3cc(OC)c(OC)cc32)c2ccccc2)cc1OC (centres unmarked) | 12.82
41 | COc1cc2c(cc1OC)C(C(C(=O)NCCOc1cccc3ccccc13)c1ccccc1)=NCC2 (centres unmarked) | 59
42 | COc1cc2c(cc1OC)C(C(C(=O)NC(C)COc1c(C)cccc1C)c1ccccc1)=NCC2 (centres unmarked) | 72.18
43 | COc1cccc(OCCN2CCN(C(=O)C(C3=NCCc4cc(OC)c(OC)cc43)c3ccccc3)CC2)c1 (centres unmarked) | 41.06
44 | COc1cc2c(cc1OC)C(C(C(=O)N1CCN(c3nc(N)c4cc(OC)c(OC)cc4n3)CC1)c1ccccc1)=NCC2 (centres unmarked) | 7.77
45 | COc1cccc(OCCNC(=O)C(C2=NCCc3cc(OC)c(OC)cc32)c2ccccc2)c1 (centres unmarked) | 45.26
46 | COc1ccc2c(c1)CCN(C(=O)C(C1=NCCc3cc(OC)c(OC)cc31)c1ccccc1)C2 (centres unmarked) | 33.06
47 | COc1cc2c(cc1OC)C(C(C(=O)NC(C)(C)C)c1ccccc1)=NCC2 (centres unmarked) | 81.60
48 | COc1cc2c(cc1OC)C(C(C(=O)NCC(C)(C)C)c1ccccc1)=NCC2 (centres unmarked) | 81.51
49 | COc1cc2c(cc1OC)C(C(C(=O)NCC13CC4CC(CC(C4)C1)C3)c1ccccc1)=NCC2 (centres unmarked) [HNCH2-1-Adam.] | 65.1

Same assay, conditions: Table 18; 10 μM test substance

Row | SMILES | percent inhibition of Ca2+ entry [%]
50 | COc1cc2c(cc1OC)C(C(C(=O)N(CCc1ccc(OC)c(OC)c1OC)CCc1ccc(OC)c(OC)c1OC)c1ccccc1OC)=NCC2 (centres unmarked) | 41.8
51 | COc1cccc(C(C(=O)N(CCc2ccc(OC)c(OC)c2OC)CCc2ccc(OC)c(OC)c2OC)C2=NCCc3cc(OC)c(OC)cc32)c1 (centres unmarked) | 24.3
52 | COc1ccc(C(C(=O)N(CCc2ccc(OC)c(OC)c2OC)CCc2ccc(OC)c(OC)c2OC)C2=NCCc3cc(OC)c(OC)cc32)cc1 (centres unmarked) | 73.7
53 | COc1ccc(C(C(=O)N(CCc2ccc(OC)c(OC)c2OC)CCc2ccc(OC)c(OC)c2OC)C2=NCCc3cc(OC)c(OC)cc32)cc1OC (centres unmarked) | 53.1
54 | COc1cc2c(cc1OC)C(C(C(=O)N(CCc1ccc(OC)c(OC)c1OC)CCc1ccc(OC)c(OC)c1OC)c1ccccc1C)=NCC2 (centres unmarked) | 68.22
55 | COc1cc2c(cc1OC)C(C(C(=O)N(CCc1ccc(OC)c(OC)c1OC)CCc1ccc(OC)c(OC)c1OC)c1ccc(Cl)cc1Cl)=NCC2 (centres unmarked) | 30.79
56 | COc1cc2c(cc1OC)C(C(C(=O)N(CCc1ccc(OC)c(OC)c1OC)CCc1ccc(OC)c(OC)c1OC)c1ccc(F)cc1)=NCC2 (centres unmarked) | 54.30
57 | COc1cc2c(cc1OC)C(C(C(=O)N(CCc1ccc(OC)c(OC)c1OC)CCc1ccc(OC)c(OC)c1OC)c1ccc(N=[N+]=[N-])cc1)=NCC2 (centres unmarked) | 61.3
58 | COc1cc2c(cc1OC)C(C(C(=O)N(CCc1ccc(OC)c(OC)c1OC)CCc1ccc(OC)c(OC)c1OC)c1ccc(N=[N+]=[N-])c(I)c1)=NCC2 (centres unmarked) | 5.81
59 | COc1cc2c(cc1OC)C(C(CC1CCC1)C(=O)N(CCc1ccc(OC)c(OC)c1OC)CCc1ccc(OC)c(OC)c1OC)=NCC2 (centres unmarked) | 56.0

Same assay, conditions: Table 19; 10 μM test substance

Row | SMILES | percent inhibition of Ca2+ entry [%]
60 | COc1ccccc1CCNC(=O)C(C1=NCCc2cc(OC)c(OC)cc21)c1ccc(N=[N+]=[N-])cc1 (centres unmarked) | 50.58

Same assay, conditions: Table 20; 10 μM test substance

Row | SMILES | percent inhibition of Ca2+ entry [%]
61 | Cc1cc2c(cc1OCc1ccccc1)CCN=C2C(C(=O)NCCc1cccc(C(F)(F)F)c1)c1ccccc1 (centres unmarked) | 49.03
62 | COc1cc2c(cc1OCc1ccccc1)CCN=C2C(C(=O)NCCC(C)(C)C)c1ccccc1 (centres unmarked) [NHCH2 CH2C(CH3)3] | 61.85
